Measurements taken from patent US20220348592A1, “FUSED HETEROCYCLIC DERIVATIVES” (Janssen Sciences Ireland Unlimited Company, priority 2019, published 2022).
Read-outs that look alike come from different tables or passages of the source.

Experiments:
[1] = system: HBV; test: Anti-HBV activity: intracellular HBV DNA by real-time PCR in HepG2.117 cell line; assay type: cell-based, Hepatitis B virus; conditions: Hepatitis B virus, read-out: HBV-AVE-HepG2.117 EC50 (μM, mean value)
Protocol: The anti HBV activity was measured using the HepG2.117 cell line, a stable, inducibly HBV producing cell line, which replicates HBV in the absence of doxicycline (Tet-off system). The HepG2 cell line is available from ATCC® under number HB-8065. Transfection of the HepG2 cell line can be as described in Sun and Nassal 2006 Journal of Hepatology 45 (2006) 636-645 “Stable HepG2- and Huh7-based human hepatoma cell lines for efficient regulated expression of infectious hepatitis B virus”.
For the antiviral assay, HBV replication was induced, followed by a treatment with serially diluted compound in 96-well plates. After 3 days of treatment, the antiviral activity was determined by quantification of intracellular HBV DNA using real-time PCR and an HBV specific primer set and probe.

[2] = Cytotoxicity in HepG2.117 cells, ATPlite Luminescence Assay; assay type: cell-based, human; conditions: human, incubated for 3 days, mean value, read-out: TOX-HepG2.117 CC50 (μM, mean value)
Protocol: Cytotoxicity of the compounds was tested using HepG2 or HepG2.117 cells, incubated for 3 days in the presence of compounds. The viability of the cells was assessed using the PERKIN ELMER ATPlite Luminescence Assay System.”

[3] = 72 h, HepG2.117 cells, 3 days of treatment, intracellular HBV DNA by real-time PCR, mean value

Row | Structure (SMILES) | EC50 [1, 3] [µM] | CC50 at 3 days [2] [µM] | EC50 ([1]; HepG2.117, 72 h) [µM]
1 | C[C@@H]1Cc2nn3c(c2CN1C(=O)c1ccc(Cl)c(Cl)c1)C(=O)N([C@@H](C)c1ccc(OC(F)F)cc1)CC3 [Compound 28, (3R)-2-(3,4-Dichlorobenzoyl)-9-{(1S)-1-[4-(difluoromethoxy)phenyl]ethyl}-3-methyl-1,2,3,4,8,9-hexahydropyrido[4′,3′:3,4]pyrazolo[1,5-a]pyrazin-10(7H)-one] | 0.057 | 16.7 | –
2 | C[C@@H]1Cc2nn3c(c2CN1C(=O)c1ccc(Cl)c(Cl)c1)C(=O)N([C@@H](C)c1ncn(S(=O)(=O)N(C)C)n1)CC3 [Compound 29, 3-{(1S)-1-[(3R)-2-(3,4-Dichlorobenzoyl)-3-methyl-10-oxo-1,3,4,7,8,10-hexahydropyrido-[4′,3′:3,4]pyrazolo[1,5-a]pyrazin-9(2H)-yl]ethyl}-N,N-dimethyl-1H-1,2,4-triazole-1-sulfonamide] | 0.741 | > 50 | –
3 | C[C@@H]1Cc2nn3c(c2CN1C(=O)c1ccc(Cl)c(Cl)c1)C(=O)N([C@@H](C)c1nc[nH]n1)CC3 [Compound 30, (3R)-2-(3,4-Dichlorobenzoyl)-3-methyl-9-[(1S)-1-(1H-1,2,4-triazol-3-yl)ethyl]-1,2,3,4,8,9-hexa-hydropyrido[4′,3′:3,4]pyrazolo[1,5-a]pyrazin-10(7H)-one] | – | > 50 | 1.5
4 | CN1CCCn2nc3c(c2C1=O)CN(C(=O)c1ccc(Cl)c(Cl)c1)CC3 [Compound 34, 2-(3,4-Dichlorobenzoyl)-10-methyl-1,2,3,4,7,8,9,10-octahydro-11H-pyrido[4′,3′:3,4]pyrazolo-[1,5-a][1,4]diazepin-11-one] | 1.38 | > 50 | –
5 | COc1ccc(CN2CCCn3nc4c(c3C2=O)CN(C(=O)c2ccc(Cl)c(Cl)c2)CC4)cc1 [Compound 36, 2-(3,4-Dichlorobenzoyl)-10-[(4-methoxyphenyl)methyl]-1,2,3,4,7,8,9,10-octahydro-11H-pyrido[4′,3′:3,4]pyrazolo[1,5-a][1,4]diazepin-11-one] | 0.077 | 24.6 | –
6 | O=C(c1ccc(Cl)c(Cl)c1)N1CCc2nn3c(c2C1)C(=O)N(Cc1ccncc1)CCC3 [Compound 37, 2-(3,4-Dichlorobenzoyl)-10-[(pyridin-4-yl)methyl]-1,2,3,4,7,8,9,10-octahydro-11H-pyrido-[4′,3′:3,4]pyrazolo[1,5-a][1,4]diazepin-11-one] | 0.345 | > 50 | –
7 | C[C@@H]1Cc2nn3c(c2CN1C(=O)c1ccc(Cl)c(Cl)c1)C(=O)NCCC3 [Compound 38, (3R)-2-(3,4-Dichlorobenzoyl)-3-methyl-1,2,3,4,7,8,9,10-octahydro-11H-pyrido[4′,3′:3,4]-pyrazolo[1,5-a][1,4]diazepin-11-one] | 1.75 | > 50 | –
8 | CC(C)CN1CCCn2nc3c(c2C1=O)CN(C(=O)c1ccc(Cl)c(Cl)c1)[C@H](C)C3 [Compound 39, (3R)-2-(3,4-Dichlorobenzoyl)-3-methyl-10-(2-methylpropyl)-1,2,3,4,7,8,9,10-octahydro-11H-pyrido[4′,3′:3,4]pyrazolo[1,5-a][1,4]diazepin-11-one] | – | > 50 | 2.49
9 | COc1ccc(CN2CCCn3nc4c(c3C2=O)CN(C(=O)c2ccc(Cl)c(Cl)c2)[C@H](C)C4)cc1 [Compound 40, (3R)-2-(3,4-Dichlorobenzoyl)-10-[(4-methoxyphenyl)methyl]-3-methyl-1,2,3,4,7,8,9,10-octahydro-11H-pyrido[4′,3′:3,4]pyrazolo[1,5-a][1,4]diazepin-11-one] | 0.022 | 20.9 | –
10 | COc1ccc(CN2CC(NS(C)(=O)=O)Cn3nc4c(c3C2=O)CN(C(=O)c2ccc(Cl)c(Cl)c2)CC4)cc1 (centres unmarked) [Compound 41, N-{2-(3,4-Dichlorobenzoyl)-10-[(4-methoxyphenyl)methyl]-11-oxo-1,3,4,7,8,9,10,11-octahydro-2H-pyrido[4′,3′:3,4]pyrazolo[1,5-a][1,4]diazepin-8-yl}methanesulfonamide] | 0.328 | > 50 | –
11 | C=C1CN(C)C(=O)c2c3c(nn2C1)C[C@@H](C)N(C(=O)c1ccc(Cl)c(Cl)c1)C3 [Compound 42, (3R)-2-(3,4-Dichlorobenzoyl)-3,10-dimethyl-8-methylidene-1,2,3,4,7,8,9,10-octahydro-11H-pyrido[4′,3′:3,4]pyrazolo[1,5-a][1,4]diazepin-11-one] | 0.308 | 1.44 | –
12 | C=C1CN(CC(F)(F)F)C(=O)c2c3c(nn2C1)CCN(C(=O)c1ccc(Cl)c(Cl)c1)C3 [Compound 43, 2-(3,4-Dichlorobenzoyl)-8-methylidene-10-(2,2,2-trifluoroethyl)-1,2,3,4,7,8,9,10-octahydro-11H-pyrido[4′,3′:3,4]pyrazolo[1,5-a][1,4]diazepin-11-one] | 0.21 | > 50 | –
13 | C[C@@H]1Cc2nn3c(c2CN1C(=O)c1ccc(Cl)c(Cl)c1)C(=O)N(C)C[C@@H](F)C3 [Compound 44] | 0.079 | > 50 | –
14 | O=C(c1ccc(Cl)c(Cl)c1)N1CCc2nn3c(c2C1)C(=S)NCCC3 [Compound 48, (3,4-dichlorophenyl)(11-sulfanylidene-1,3,4,7,8,9,10,11-octahydro-2H-pyrido[4′,3′:3,4]pyrazolo-[1,5-a][1,4]diazepin-2-yl)methanone] | 1.23 | > 50 | –
15 | COc1ccc(CN2CCn3nc4c(c3C2=O)CN(C(=O)c2ccc(F)c(C)c2)CC4)cc1 [Example C49] | 0.274 | 20.6 | –
16 | COc1ccc(CN2CCn3nc4c(c3C2=O)CN(C(=O)c2ccc(F)c(C#N)c2)CC4)cc1 [Example C52] | 0.995 | > 50 | –
17 | COc1ccc(CN2CCn3nc4c(c3C2=O)CN(C(=O)c2ccc(C)c(F)c2)CC4)cc1 [Example C53] | 1.08 | 20.4 | –
18 | COc1ccc(CN2CCn3nc4c(c3C2=O)CN(C(=O)c2cccc(Cl)c2)CC4)cc1 [Example C54] | 1.99 | 13.6 | –
19 | COc1ccc(CN2CCn3nc4c(c3C2=O)CN(C(=O)c2cc(F)c(F)c(F)c2)CC4)cc1 [Example C56] | 0.962 | 28.4 | –

Row | Structure (SMILES) | EC50 [1, 3] [µM] | CC50 at 3 days [2] [µM] | EC50 ([1]; HepG2.117, 72 h) [µM]
20 | COc1ccc(CN2CCn3nc4c(c3C2=O)CN(C(=O)c2ccc(Cl)c(C(F)F)c2)CC4)cc1 [Example C57] | 0.04 | 18.9 | –
21 | COc1ccc(CCN2CCn3nc4c(c3C2=O)CN(C(=O)c2ccc(Cl)c(Cl)c2)[C@H](C)C4)cc1 [Example C58] | 0.531 | 18 | –
22 | C[C@@H]1Cc2nn3c(c2CN1C(=O)c1ccc(Cl)c(Cl)c1)C(=O)N(Cc1ncccn1)CC3 [Example C60] | 0.565 | > 50 | –
23 | COc1ccc(CN2CCn3nc4c(c3C2=O)CN(C(=O)c2ccc(C(F)F)c(Cl)c2)CC4)cc1 [Example C62] | 0.13 | 9.31 | –
24 | COc1ccc(CN2CCn3nc4c(c3C2=O)CN(C(=O)c2ccc(Cl)c(C#N)c2)CC4)cc1 [Example C64] | 0.089 | > 49 | –
25 | C[C@@H]1Cc2nn3c(c2CN1C(=O)c1ccc(Cl)c(Cl)c1)C(=O)N(Cc1cnccn1)CC3 [Example C65] | 0.299 | > 50 | –
26 | C[C@@H]1Cc2nn3c(c2CN1C(=O)c1ccc(Cl)c(Cl)c1)C(=O)N(Cc1cccc(OC(F)F)c1)CC3 [Example C66] | 0.042 | 9.18 | –
27 | C[C@@H]1Cc2nn3c(c2CN1C(=O)c1ccc(Cl)c(Cl)c1)C(=O)N(Cc1ccccc1OC(F)F)CC3 [Example C67] | 0.07 | 22.5 | –
28 | COc1ccc(CN2CCn3nc4c(c3C2=O)CN(C(=O)c2ccc(C(F)F)c(F)c2)CC4)cc1 [Example C68] | 0.321 | 10.6 | –
29 | C[C@@H]1Cc2nn3c(c2CN1C(=O)c1ccc(Cl)c(Cl)c1)C(=O)N(Cc1ccc(OC(F)F)cn1)CC3 [Example C69] | 0.063 | 14.5 | –
30 | COc1ccc(CN2CCn3nc4c(c3C2=O)CN(C(=O)c2ccc(C(F)F)c(C#N)c2)CC4)cc1 [Example C70] | 0.232 | > 50 | –
31 | O=C(c1ccc(Cl)cc1F)N1CCc2nn3c(c2C1)C(=O)N(Cc1ccccn1)CC3 [Example C72] | > 2.5 | > 50 | –
32 | O=C(c1cnc(Cl)c(Cl)c1)N1CCc2nn3c(c2C1)C(=O)N(Cc1ccccn1)CC3 [Example C73] | > 2.5 | > 50 | –
33 | Cc1cc(Cl)ccc1C(=O)N1CCc2nn3c(c2C1)C(=O)N(Cc1ccccn1)CC3 [Example C74] | > 2.5 | > 50 | –
34 | COc1cc(Cl)ccc1C(=O)N1CCc2nn3c(c2C1)C(=O)N(Cc1ccccn1)CC3 [Example C76] | 0.983 | > 25 | –
35 | O=C(c1ccc(Cl)c(F)c1)N1CCc2nn3c(c2C1)C(=O)N(Cc1ccccn1)CC3 [Example C78] | 0.707 | > 50 | –
36 | C[C@@H]1Cc2nn3c(c2CN1C(=O)c1ccc(Cl)c(Cl)c1)C(=O)N(Cc1ccccc1F)CC3 [Example C80] | 0.05 | 26.1 | –
37 | C[C@@H]1Cc2nn3c(c2CN1C(=O)c1ccc(Cl)c(Cl)c1)C(=O)N(Cc1ccc(C#N)cc1)CC3 [Example C82] | 0.019 | 32.5 | –
